What was measured:
[1] = biological target: Fibroblast growth factor receptor 3 (Homo sapiens, UniProt P22607); assay: biochemical; type: cell-based, Sf9
Description: Inhibition of wild type His-tagged human FGFR3 (455 to 763 residues) expressed in Sf9 insect cells by ELISA

[2] = biological target: Vascular endothelial growth factor receptor 2 (Homo sapiens, UniProt P35968)
Description: Inhibition of human VEGFR2 (805 to 1171 residues) by ELISA

Homo sapiens = species: Homo sapiens; assay: Selectivity ratio of IC50 for wild type His-tagged human FGFR3 (455 to 763 residues) expressed in Sf9 insect cells to IC50 for human VEGFR2 (805 to 1171 residues)

Chain of Vascular endothelial growth factor receptor 2 (P35968 whole entry, the tested form may be a part): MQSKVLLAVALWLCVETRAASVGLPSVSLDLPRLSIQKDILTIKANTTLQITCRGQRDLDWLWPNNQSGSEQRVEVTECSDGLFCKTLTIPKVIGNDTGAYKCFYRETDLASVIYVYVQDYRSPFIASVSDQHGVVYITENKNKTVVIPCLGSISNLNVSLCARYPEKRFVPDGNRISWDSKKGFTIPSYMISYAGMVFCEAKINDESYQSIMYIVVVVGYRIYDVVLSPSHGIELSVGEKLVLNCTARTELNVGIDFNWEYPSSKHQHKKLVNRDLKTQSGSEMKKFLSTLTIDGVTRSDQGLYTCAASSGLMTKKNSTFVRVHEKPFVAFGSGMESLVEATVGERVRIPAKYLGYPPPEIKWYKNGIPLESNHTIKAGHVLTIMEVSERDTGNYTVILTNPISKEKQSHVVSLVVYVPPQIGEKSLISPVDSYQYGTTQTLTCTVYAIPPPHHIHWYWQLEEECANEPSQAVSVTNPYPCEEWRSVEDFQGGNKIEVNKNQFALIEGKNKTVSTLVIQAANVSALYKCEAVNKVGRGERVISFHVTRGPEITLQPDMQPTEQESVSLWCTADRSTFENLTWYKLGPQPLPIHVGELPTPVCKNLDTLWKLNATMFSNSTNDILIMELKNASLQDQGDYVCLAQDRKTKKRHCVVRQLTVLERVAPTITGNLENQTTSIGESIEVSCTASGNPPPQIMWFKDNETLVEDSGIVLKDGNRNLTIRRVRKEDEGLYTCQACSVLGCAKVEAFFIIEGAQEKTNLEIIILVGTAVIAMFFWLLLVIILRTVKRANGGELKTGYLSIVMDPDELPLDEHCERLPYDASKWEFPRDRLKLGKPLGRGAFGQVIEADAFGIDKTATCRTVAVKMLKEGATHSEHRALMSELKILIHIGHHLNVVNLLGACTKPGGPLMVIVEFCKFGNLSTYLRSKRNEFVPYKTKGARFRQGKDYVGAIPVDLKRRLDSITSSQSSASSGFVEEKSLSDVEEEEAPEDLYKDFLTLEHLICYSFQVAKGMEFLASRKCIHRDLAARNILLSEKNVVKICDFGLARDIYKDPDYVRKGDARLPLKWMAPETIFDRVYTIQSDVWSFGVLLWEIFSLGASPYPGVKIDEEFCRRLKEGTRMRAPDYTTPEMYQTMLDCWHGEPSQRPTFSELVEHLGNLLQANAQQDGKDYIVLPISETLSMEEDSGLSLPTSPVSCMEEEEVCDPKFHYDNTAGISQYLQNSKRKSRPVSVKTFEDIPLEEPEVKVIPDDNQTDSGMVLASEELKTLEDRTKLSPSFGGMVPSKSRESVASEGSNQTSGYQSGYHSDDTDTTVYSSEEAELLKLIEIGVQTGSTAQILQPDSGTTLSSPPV
Chain of Fibroblast growth factor receptor 3 (P22607 whole entry): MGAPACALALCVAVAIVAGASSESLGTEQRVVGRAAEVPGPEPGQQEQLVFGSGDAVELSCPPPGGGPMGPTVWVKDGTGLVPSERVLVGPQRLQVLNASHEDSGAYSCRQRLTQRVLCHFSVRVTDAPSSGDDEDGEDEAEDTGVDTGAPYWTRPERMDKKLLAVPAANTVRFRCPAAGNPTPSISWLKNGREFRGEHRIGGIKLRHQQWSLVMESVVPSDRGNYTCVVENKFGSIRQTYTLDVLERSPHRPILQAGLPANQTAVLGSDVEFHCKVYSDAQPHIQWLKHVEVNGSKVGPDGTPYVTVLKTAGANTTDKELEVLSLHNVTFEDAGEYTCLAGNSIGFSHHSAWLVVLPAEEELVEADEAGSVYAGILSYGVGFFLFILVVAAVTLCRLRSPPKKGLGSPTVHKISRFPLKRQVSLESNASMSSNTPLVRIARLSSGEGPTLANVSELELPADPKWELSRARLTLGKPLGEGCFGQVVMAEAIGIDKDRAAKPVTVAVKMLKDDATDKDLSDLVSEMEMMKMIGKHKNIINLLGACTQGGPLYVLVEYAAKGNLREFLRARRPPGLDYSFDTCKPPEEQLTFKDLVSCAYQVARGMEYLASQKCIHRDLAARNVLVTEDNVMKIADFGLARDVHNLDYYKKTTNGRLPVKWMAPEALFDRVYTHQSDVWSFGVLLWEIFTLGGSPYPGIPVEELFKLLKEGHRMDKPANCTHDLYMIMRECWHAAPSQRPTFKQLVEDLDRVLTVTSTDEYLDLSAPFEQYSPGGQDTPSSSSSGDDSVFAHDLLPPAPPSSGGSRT

Structure (SMILES) | IC50 [1] | IC50 [2] | Ratio IC50 (Homo sapiens)
Nc1ccc2nccnc2c1 | 120 µM | 140 µM | 
COc1ccc(CNc2ccc3ncc(-c4cnn(C)c4)nc3c2)c(OC)c1 | 0.33 µM | 5.5 µM | 15
Cn1cc(-c2cnc3ccc(Cl)cc3n2)cn1 | 6.5 µM | 0.46 µM | 
COc1cc(Nc2ccc3ncc(-c4cnn(C)c4)nc3c2)cc(OC)c1 | 0.012 µM | 0.56 µM | 
